Patent US20190000868A1, “COMPOSITIONS COMPRISING 4'-O-GLUCURONIDE EPICATECHIN AND METHODS OF MAKING AND USING SUCH COMPOSITIONS” (NESTEC S.A., priority 2015, published 2019)

Test system: endothelial nitric oxide synthase
Assay: eNOS phosphorylation (western blot) in isolated aortic rat rings
Type: cell-based
Set-up: dose or concentration left out as unconfirmed
Details: isolated thoracic aortic rings of male Wistar rats, incubated 1 h, FIG. 4
Experimental: Comparative experiments were conducted on the expression of endothelial nitric oxide synthase in isolated aortic rat rings.
Thoracic aortas were obtained from male adults Wistar rats after euthanasia. Each aorta was carefully dissected and harvested cleaned of excess tissue and cut into three equal segments, approximately 7 mm long. All aortic rings were pre-incubated for 30 min in Krebs solution (20 mM Hepes buffer, pH 7.4, containing 119 mM NaCl, 4.7 mM KCl, 1 mM MgSO4, 0.4 mM NaH2PO4, 0.15 mM Na2HPO4, 5 mM NaHCO3, 1.25 mM CaCl2, 5.5 mM glucose) aerated with 95% O2 and 5% CO2 at 37° C. and then incubated with vehicle (DMSO 1%) or the different metabolites for 1 h. Metabolites were first dissolved in DMSO 1% and tested in a final concentration […]. At the end of the incubation period aortic rings were frozen at −70° C. until the homogenate preparation. Homogenates for western blot and western blot determinations were carried out by the regular procedures and phosphorylation level of endothelial nitric oxide synthase was evaluated.

Compound: O=C(O)[C@H]1O[C@@H](Oc2ccc([C@H]3Oc4cc(O)cc(O)c4C[C@H]3O)cc2O)[C@H](O)[C@@H](O)[C@@H]1O [4′-O-glucuronide epicatechins, 4′-O-glucuronide epicatechin]
- phosphorylation level of endothelial nitric oxide synthase (p-eNOS vs eNOS total): increased eNOS phosphorylation relative to control and chemically similar epicatechins
